Some results are limits rather than exact numbers.

The source of these data is patent US20140341812A1, “BETA-AMYLOID PET IMAGING AGENTS” (The United States of America, as represented by the …, priority 2006, published 2014).

T1 sequence (P05067 672-713 limits assumed): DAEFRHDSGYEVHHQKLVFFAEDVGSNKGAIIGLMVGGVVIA
T1 sequence (P05067 672-711 limits assumed): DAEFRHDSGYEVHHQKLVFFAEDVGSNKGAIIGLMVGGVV
Sequence of amyloid (P05067 672-713 limits assumed): as the sequence (P05067 672-713 limits assumed) above
Sequence of amyloid (P05067 672-711 limits assumed): as the sequence (P05067 672-711 limits assumed) above

The first data set has as its target T1, beta-amyloid plaques in AD brain tissue (Homo sapiens, UniProt P05067).
T1 construct: gauged from the concentration of Aβ1-40 and Aβ1-42 monomers; from tissue; host or cells: postmortem human AD brain grey matter; plaques isolated by SDS/sucrose centrifugation and collagenase/DNase digestion
Put plainly: In vitro binding assay: competitive displacement of [3H]6-OH-BTA-1 from isolated human AD amyloid plaques. The settings on record: [3H]6-OH-BTA-1 as reference radioligand; isolated human AD amyloid plaques; Table 4. As for the experimental part:
Isolation of human AD amyloid. Postmortem brain […] were obtained from a confirmed AD patient. Pre- and postmortem consent was obtained from next of kin, and brains were removed at autopsy, sectioned and frozen at −70° C. Bags of brain tissue were removed from the freezer to a −20° C. freezer one day before, and then placed on ice 3 h before the experiment. While working on ice, the brain tissue was cut into small sections, and meningies from outer layer of cortex and from fissures between the lobes of the gray matter was removed. After removing the white matter, the grey matter were chopped into small pieces and placed into plastic bags. The tissue was stored in −70° C. freezer for further use.
In a typical isolation, 60 g of brain tissue were used. Initially, an equal volume of 1% SDS was added to homogenize. More 1% SDS was added later until 200 mL. The mixture was vortexed, distributed evenly among 10 Beckman ultracentrifuge tubes, and centrifuged by a Coulter type 55.2 Ti ultracentrifuge rotor using RPM: 40,000; G force; 180,000; temp: 4° C.; time: 30 min. The collected bottom pellets were further homogenized and centrifuged twice more as described above using 50 mL and 20 mL of 1% SDS each, and finally in 20 mL 1.2 M sucrose. The supernatant along the top pellet was discarded. The pellets at the bottom were homogenized and centrifuged in 20 mL 1.9 M sucrose. The top pellets were collected using a cell scrapper, and the bottom pellets were discarded. The collected top pellets were homogenized and centrifuged using 20 mL deionized water. The bottom pellets were further homogenized and centrifuged using 1.3 M sucrose solution into one centrifuge tube. The bottom pellets were homogenized and centrifuged using 20 mL deionized water. The collected pellets were homogenized in 30 mL of 50 mM Tris-HCl, pH 8.0, 2 mM CaCl2. Collagenase CLS3 (120 mg) and DNAase I (10-15 mg) were added. The mixture was vortexed and incubated for 24-56 hrs at 37° C. in a water bath with shaking. After incubation, the suspension was filtered through 41 μm Milllpore filter paper. The collected filtrate was centrifuged and the bottom pellets were homogenized and centrifuged one more time using the Tris-HCl solution. The supernatant was discarded, and the pellets were homogenized and centrifuged using 10 mL 1.9 M sucrose. The top pellet and the 1.9M sucrose layer were transferred to a new tube (this is to remove heavy particles such as metals and salts). Deionized water (40 mL) was added. After homogenization and centrifugation, the collected pellets were put into 500 μL of deionized water to form a homogeneous suspension. It was stored in a refrigerator or freezer for further use.
The amyloid suspension prepared above was diluted by a factor of 40,000 to 50,000 in PBS, and 800 μL suspension was used in each tube. […] Cold 6-OH-BTA-1 or other displacer was dissolved in ethanol to result in a stock solution of 1×10^−3 M, which was further diluted using PBS or ethanol to result in solutions with concentrations ranging from 1×10^−5 to 10^−10 M, and 100 μL was used in each tube. After assembly, the tubes were vortexed, and incubated for 3 hrs at room temperature. After separation using a cell harvester, the filter paper (GF/B filter paper pretreated with 0.5% polyimine solution) was washed with 10% ethanol in PBS (3×3 mL). The filters were placed into 20 mL glass vials and 10 mL scintillation fluid each was added. After overnight incubation, the samples were counted. The data were analyzed using GraphPad Prism 4 or KaleidaGraph 3.6.
Isolated plaques were used in developing an in vitro binding assay. Tritiated-6-OH-BTA-1 was selected as the reference radioligand based on its use in human PET imaging and high affinity.^28 Displacement curves were created using non-radioactive 6-OH-BTA-1 and other novel ligands.
In general terms: In a radioligand displacement assay an active substance lowers the binding of a labelled ligand.
What is called Ki is a measure of affinity in units of concentration, obtained from inhibition or displacement. The compound `CN(CCF)c1ccc(-c2cn3cc(I)ccc3n2)cc1` [Ligand L2, N-(2-fluoroethyl)-4-(6-iodo-H-imidazo[1,2-A]pyridin-2-yl)-N-methylbenzeneamine, reference compound] had a Ki of 31 ± 5 nM.

As to `CN(CCCF)c1ccc(-c2cn3cc(I)ccc3n2)cc1` [Ligand L3, reference compound], the inhibition constant (Ki) is 41 ± 5 nM.

Take `CN(C)c1ccc(-c2cn3cc(Br)ccc3n2)cc1` [Ligand L4]: the affinity, expressed as Ki, was 5.9 ± 0.4 nM.

On to `CN(C)c1ccc(-c2cn3cc(Cl)ccc3n2)cc1` [Ligand L5], for which affinity was put at a Ki of 24.2 ± 5.6 nM.

Turning to `CN(C)c1ccc(-c2cn3cc(F)ccc3n2)cc1` [Ligand L6, 4-(6-fluoro-H-imidazo[1,2-a]pyridin-2-yl)-N,N-dimethylbenzenamine], the Ki was determined as 13 ± 1.6 nM. Against the preceding compound, the Ki is about 1.9-fold lower.

For `CN(C)c1ccc(-c2cn3cc([N+](=O)[O-])ccc3n2)cc1` [Ligand L7, N,N-dimethyl-4-(6-nitro-H-imidazo[1,2-a]pyridin-2-yl)benzenamine], the Ki was 7.6 ± 0.7 nM.

`CN(C)c1ccc(-c2cn3cc(C#N)ccc3n2)cc1` [Ligand L8, 2-(4-(dimethylamino)phenyl)-H-imidazo[1,2-a]pyridine-6-carbonitrile] displayed an inhibition constant (Ki) of 8.2 ± 1 nM.

In turn, `COc1ccc2nc(-c3ccc(N(C)C)cc3)cn2c1` [Ligand L9, 4-(6-methoxy-H-imidazo[1,2-a]pyridin-2-yl)-N,N-dlmethylbenzenamine] gave a Ki of 38.5 ± 5 nM.

Compound `CN(C)c1ccc(-c2cn3cc(O)ccc3n2)cc1` [Ligand L12, 2-(4-(dimethylamino)phenyl)-H-imidazo[1,2-a]pyridin-6-ol] gave a Ki of 177 ± 31 nM.

`CN(C)c1ccc(-c2cc3c(I)cc(Br)cn3c2)cc1` [Ligand L13, 4-(6-bromo-8-iodoindolizin-2-yl)-N,N-dimethylbenzenamine] displayed a Ki of 183 ± 61 nM.

For the compound `CN(C)c1ccc(-c2cc3c(C#N)cc(Br)cn3c2)cc1` [Ligand L14, 6-bromo-2-(4-(dimethylamino)phenyl)indolizine-8-carbonitrile], the Ki was greater than 180 nM.

Turning to `CNc1ccc(-c2cn3cc(Br)ccc3n2)cc1Br` [Ligand L18, 2-bromo-4-(6-bromo-H-imidazo[1,2-a]pyridin-2-yl)-N-methylbenzenamine], the inhibition constant Ki was 7.4 ± 0.6 nM.

The compound `Cc1cc(-c2cn3cc(Br)ccc3n2)ccc1N` [Ligand L20, 4-(6-bromo-H-imidazo[1,2-a]pyridin-2-yl)-2-methylbenzenamine] yielded an inhibition constant Ki of 658 ± 47 nM.

Take `CNc1ccc(-c2cn3cc(SCC(N)=O)ccc3n2)cc1` [Ligand T1, 2-(2-(4(methylamino)pheny)-H-imidazo[1,2-a]pyridin-6-ylthio)acetamide]: the Ki came to 1840 ± 497 nM.

`CN(C)c1ccc(-c2cn3cc(SCC(N)=O)ccc3n2)cc1` [Ligand T2, 2-(2-(4-(dimethylamino)phenyl)-H-imidazo[1,2-a]pyridin-6-ylthio)acetamide] showed a Ki of 391 ± 76 nM.

Consider `CNc1ccc(-c2cn3cc(SCCO)ccc3n2)cc1` [Ligand T3, 2-(2-(4-(methylamino)phenyl)-H-imidazo[1,2-a]pyridin-6-ylthio)ethanol], for which affinity was put at a Ki of 645 ± 75 nM. This Ki lies about 1.6-fold higher than the previous one.

As for `CN(C)c1ccc(-c2cn3cc(SCCO)ccc3n2)cc1` [Ligand T4, 2-(2-(4-(dimethylamino)phenyl)-H-imidazo[1,2-a]pyridin-6-ylthio)ethanol], the affinity, expressed as Ki, was 88 ± 6 nM.

`COc1ccc(CSc2ccc3nc(-c4ccc(N(C)C)cc4)cn3c2)cc1` [Ligand T5, 4-(6-(4-methoxybenzylthio)-H-imidazo[1,2-a]pyridin-2-yl)-N,N-dimethylbenzenamine] came in with an inhibitory constant (Ki) of 8.3 ± 1.8 nM.

`CSc1ccc2nc(-c3ccc(N(C)C)cc3)cn2c1` [Ligand T6, N,N-dimethyl-4-(6-(methylthio)-H-imidazo[1,2-a]pyridin-2-yl)benzenamine] had a Ki of 7.9 ± 0.6 nM.

For the compound `CCSc1ccc2nc(-c3ccc(N(C)C)cc3)cn2c1` [Ligand T7, 4-(6-(ethylthio)-H-imidazo[1,2-a]pyridin-2-yl)-N,N-dimethylbenzenamine], the affinity, expressed as Ki, was 8.3 ± 0.5 nM.

The same data set, now with this note: [3H]6-OH-BTA-1 as reference radioligand; isolated human AD amyloid plaques; Table 5.
As to `CN(C)c1ccc(-c2cn3cc(Cl)ncc3n2)cc1` [Ligand L21, 4-(6-chloroimidazo[1,2-a]pyrazin-2-yl)-N,N-dimethylbenzenamine], the affinity, expressed as Ki, was 88 ± 22 nM.

As for `CN(C)c1ccc(-c2cn3cc(Cl)cnc3n2)cc1` [Ligand L22, 4-(6-chloroimidazo[1,2-a]pyrimidin-2-yl)-N,N-dimethylbenzenamine], the inhibition constant (Ki) was found to be 147 ± 20 nM.

`CN(C)c1ccc(-c2nc3ccc(SCCO)cc3s2)cc1` [Ligand P1] gave an inhibition constant (Ki) of 5.7 ± 0.7 nM.

Staying with this data set, now noted: discussion of the Table 4 Ki values.
For the compound `CN(C)c1ccc(-c2cn3cc(O)ccc3n2)cc1` [Ligand L12, 2-(4-(dimethylamino)phenyl)-H-imidazo[1,2-a]pyridin-6-ol], the “binding affinity (in words)” value was “abolishes all binding affinity”.

With `CN(C)c1ccc(-c2cc3c(C#N)cc(Br)cn3c2)cc1` [Ligand L14, 6-bromo-2-(4-(dimethylamino)phenyl)indolizine-8-carbonitrile], the “binding affinity (in words)” value is “completely removes the binding affinity”.

Still in this data set, the particulars now being: displacement of [3H]6-OH-BTA-1 from isolated amyloid plaques.
As to `CNc1ccc(-c2nc3ccc(O)cc3s2)cc1` [PIB, 6-hydroxy-2-(4′-methylaminophenyl)benzothiazole, reference compound], the “displacement of reference radioligand” value is given as greater than 95%.

A further data set addresses amyloid (Homo sapiens, UniProt P05067).
Test: not given
The settings on record: PET, patients with AD vs healthy people; cited from earlier work.
On to `CNc1ccc(-c2nc3ccc(O)cc3s2)cc1` [carbon-11-labelled-PIB, 6-hydroxy-2-(4′-methylaminophenyl)benzothiazole], for which the “binding in the brains of patients with AD compared with healthy people” value was “more binding in the brains of patients with AD than in those of healthy people”.

In the case of `CC(=C(C#N)C#N)c1ccc2cc(N(C)CC[18F])ccc2c1` [fluorine-18-labelled-FDDNP, 2-(1-{6-[(2-[^18F]fluoroethyl)(methyl)amino]-2-naphthyl}ethylidene)malononitrile], the “binding in the brains of patients with AD compared with healthy people” value is “more binding in the brains of patients with AD than in those of healthy people”.

Tested on in the next data set: not given
Test: not given
Conditions: not given
The term melting point denotes the temperature, or range, at which the solid turns liquid. Consider `CN(C)c1ccc(-c2cn3cc(Cl)ccc3n2)cc1` [Ligand L5], for which the melting point lay in the range of 234 to 236 °C.

Take `CN(C)c1ccc(-c2cn3cc(C#N)ccc3n2)cc1` [Ligand L8, 2-(4-(dimethylamino)phenyl)-H-imidazo[1,2-a]pyridine-6-carbonitrile]: the melting point was 269 to 271 °C.

`CC(=O)N(C)c1ccc(-c2cc3ccc(Br)cn3c2)cc1C` [Ligand L16, N-(4-(6-bromoindolizin-2-yl)-2-methylphenyl)-N-methylacetamide]: the melting point was in the range of 197 to 198 °C.

Take `CCSc1ccc2nc(-c3ccc(N(C)C)cc3)cn2c1` [Ligand T7, 4-(6-(ethylthio)-H-imidazo[1,2-a]pyridin-2-yl)-N,N-dimethylbenzenamine]: the melting point fell in the range of 168 to 171 °C.

Tested on in another data set: not given
Test: not given
The settings on record: after intravenous injection into rodent or monkey; reported in Cai et al., J. Med. Chem. 2004; cited from earlier work.
Consider `CN(CCF)c1ccc(-c2cn3cc(I)ccc3n2)cc1` [[^18F]FEM-IMPY, N-(2-fluoroethyl)-4-(6-iodo-H-imidazo[1,2-A]pyridin-2-yl)-N-methylbenzeneamine], for which the “SUV (standardized uptake value) in brain” value was “about 160 % I.D.kg/g”.

On to `CN(CCC[18F])c1ccc(-c2cn3cc(I)ccc3n2)cc1` [[^18F]FPM-IMPY], for which the “SUV (standardized uptake value) in brain” value was “about 160 % I.D.kg/g”.
